Experimental data: PMC6895912 (Cancers, 2019)
Where two headings read alike, the source gives them in different places.

Columns and labels:
[1] = Plasma pharmacokinetics after single IV, IP or PO dose; type: in vivo, male CD-1 mice; conditions: for bioavailability: read-out: F (%) absolute bioavailability
Experimental: These studies were conducted in male CD-1 mice (7–8 weeks old, weighing about 27–33 g) were obtained from Hylasco Bio-Technology Pvt. Ltd. (A Charles River Technology Licensee, Turkapally, India). The details are presented in the Supplementary Materials.
A generic gradient LC method with a short run times of 3.5 min for Gal and 4.5 min for VNPP414 and VNPP433-3β were developed for the analysis of Gal/analogs in plasma samples. The mobile phase flow rate was 1.0 mL/min with a split ratio of 1:1 to the ionization source. The mobile phase for Gal consisted of 10 mM ammonium acetate in water as aqueous component and 100% methanol as organic modifier. For the Gal analogs, the mobile phase consisted of 0.01% formic acid in water and 100% acetonitrile. The column and autosampler were maintained at 40°C and 15°C, respectively for all assays. The turbo ion spray source was operated with typical settings as follows: ionization mode, positive; curtain gas, 30 psi; nebulizer gas (GS1), 55 psi; heater gas (GS2), 50 (for Gal analyte) and 60 (for Gal analogs analytes) psi; nebulizer gas 55 psi; temperature, 550 °C. A summary of the ion transitions, collision energies and retention times for both the analytes (Gal, VNPP414 and VNPP433- […]
components were automatically integrated using Analyst software version 1.5.
Table S1. Optimized mass spectroscopic conditions. *IS: internal standard; **Gal had two daughter ions (m/z: 119.20 and 195.20) that were used for multiple reaction monitoring (MRM) in LC-MS/MS runs. Because we observed a poor shape peak of Gal with fragment of m/z 195.20 at lower levels (LLOQ: 1 ng/mL) in plasma samples, we used fragment m/z 119.20 for the PK study. We used fragment of m/z 195.20 when Gal was used as IS where the concentration was ~200 ng/mL. This fragment was stable throughout the study.
Analytes Parent ions Daughter ions Collision energy Declustering potentials […]
1.5. Pharmacokinetics of Gal, VNPP414 and VNPP433-3β in CD-1 Mice
Male CD-1 mice (7-8 weeks old, weighing about 27-33 g) were obtained from Hylasco Bio-Technology Pvt. Ltd (A Charles River Technology Licensee in India) were maintained in a controlled environment of about 25 °C, 50% relative humidity and a 12-h light/12-h dark cycle. The compounds were formulated in either 10% DMSO in 10% solutol in phosphate-buffered saline (PBS) for single intravenous doses (1 mg/kg) or in 40% β-cyclodextrin in saline for single intraperitoneal or oral doses (10 mg/kg). 10 ml/kg dose volume used for administrating the formulation for all the three routes (IV, IP and PO). The IV administration was performed through tail vein of mice as bolus. For IP route, the compound was dosed in intraperitoneal cavity using a 27-gauze needle. PO administration was performed through gastric gavage tube (aka feeding tube). Serial blood samples were collected from 3 mice per time-point (staggered bleeding approach was used for mice where one mice was bled maximum for three time within 24h) into vacutainers containing lithium heparin (anticoagulant) at and 24 h post dose after intraperitoneal or oral administration. In total, 81 mice were used for this study. At each time point 200 μL of blood was collected into vacutainers. Venous blood Samples were collected using retro orbital puncture method. Plasma was isolated by centrifugation at 10000 rpm for 10 min and stored frozen at -80°C until assay. Plasma pharmacokinetic parameters were calculated using the non-compartmental analysis tool of Phoenix software (Version 7, Pharsight) and were determined from individual animals in each group. The area under the plasma concentration-time curve (AUC0-t and AUCinf), elimination half-life (T1/2), clearance (CL), volume of distribution (Vd) and mean residence time (MRT) were calculated from intravenous group. The peak plasma concentration (Cmax), time to achieve peak plasma concentration (Tmax), AUC0-t and AUCinf, were […]
calculated for the IP and PO groups. Absolute oral bioavailability (%F) were calculated from the PO […]

Mnk1 = biological target: T1, Mnk1 (Homo sapiens, UniProt Q9BUB5); assay: Protein level decrease by western blot, dose-response in CWR22Rv1 cells; type: cell-based; conditions: for times more effective (than Gal) in degrading Mnk1: from EC50 values
T1 construct: compound treatments (0–7.5 µM) of CWR22Rv1 cells for 72 h followed by western blot analysis of cells lysates; endogenous in cells; host or cells: CWR22Rv1
Source text: Figure 4 Impact of Gal and NGGAs on AR/AR-V7 and Mnk1/2-eIF4E signaling pathways. (A) Western blot showing the effects of Gal and VNPT55 (55) on Mnk1, Mnk2, and peIF4E. (B) Western blot showing the effects of VNPP414 (414) and VNPP433-3β (433)) on Mnk1, Mnk2, and peIF4E. (C) Western blot showing dose-dependent effect of VNPP433-3β (433) on Mnk2, BMI-1, and peIF4E in CWR-R1 cells. (D) Western blot showing dose-dependent effect of Gal on Mnk1, Mnk2, BMI-1, and Snail1 in drug-resistant CWR-R1(10E) cells. (E) Western blot showing dose-dependent effect of VNPP433-3β (433) on Mnk1, Mnk2, BMI-1, and Snail1 in drug-resistant CWR-R1(10E) cells. (F) EC50 values (for fAR, ARV-7 and Mnk1) for compounds determined from dose–response curves upon compound treatments (0–7.5 µM) of CWR22Rv1 cells for 72 h followed by western blot analysis of cells lysates. Note: the numbers in parentheses in Figure 4B are concentrations of the agents in µM.
We further determined the effects of lead NGGAs on f-AR, AR-V7 and Mnk1 protein levels in CWR22Rv1 cells. Following agent treatments (0–7.5 µM), the EC50 values were determined from dose–response curves. […] Of note is the finding that although there was no dramatic difference between the agents in terms of their effects on f-AR suppression, there were significant differences in their relative potencies against AR-V7 and Mnk1.
Cells were lysed with radioimmunoprecipitation assay (RIPA) buffer (Sigma, St. Louis, MO, USA), supplemented with 1X protease inhibitors (Roche, Indianapolis, IN, USA), phosphatase inhibitors (Thermo Scientific, Waltham, MA, USA), 1 mmol/L EDTA and 1 mmol/L PMSF (Sigma). Western blot analyses were performed as in Kwegyir-Afful et al., 2015 [2].

[2] = mouse, plasma, IP 10 mg/kg, male CD-1 mice
[3] = mouse, plasma, IV 1 mg/kg, male CD-1 mice
[4] = mouse, plasma, PO 10 mg/kg, male CD-1 mice
[5] = mouse, IP 10 mg/kg, male CD-1 mice, plasma
[6] = mouse, IV 1 mg/kg, male CD-1 mice, plasma
[7] = mouse, PO 10 mg/kg, male CD-1 mice, plasma
[8] = 0–7.5 µM, 72 h, western blot, read-out: Mnk1 EC50
[9] = PO 10 mg/kg, male CD-1 mice, 10 mg/kg
[10] = male, CD-1, mouse, in vivo, ip, 10 mg/kg, IP 10 mg/kg, male CD-1 mice
[11] = male, CD-1, mouse, in vivo, po, 10 mg/kg, PO 10 mg/kg, male CD-1 mice
[12] = mouse, in vivo, IP 10 mg/kg, male CD-1 mice, plasma
[13] = mouse, in vivo, PO 10 mg/kg, male CD-1 mice, plasma

T1 sequence (Q9BUB5 whole entry): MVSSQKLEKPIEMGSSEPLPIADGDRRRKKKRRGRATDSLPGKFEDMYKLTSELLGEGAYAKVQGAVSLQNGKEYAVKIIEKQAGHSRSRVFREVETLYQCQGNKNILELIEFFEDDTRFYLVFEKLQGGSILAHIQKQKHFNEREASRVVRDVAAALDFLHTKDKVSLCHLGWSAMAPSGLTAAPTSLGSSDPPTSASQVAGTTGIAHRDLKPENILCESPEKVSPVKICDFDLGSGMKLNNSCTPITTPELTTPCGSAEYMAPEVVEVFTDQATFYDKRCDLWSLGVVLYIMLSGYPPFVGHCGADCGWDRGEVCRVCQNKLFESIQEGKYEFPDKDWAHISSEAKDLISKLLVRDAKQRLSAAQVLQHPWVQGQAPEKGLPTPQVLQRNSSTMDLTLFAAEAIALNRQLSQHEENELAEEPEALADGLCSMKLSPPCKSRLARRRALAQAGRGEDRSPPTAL

Compound	half-life [1, 2] [h]	bioavailability [1, 2] [%]	half-life [1, 3] [h]	half-life [1, 4] [h]	bioavailability [1, 4] [%]	AUC(0-inf) [1, 5] [ng·h/mL]	Cmax [1, 5] [ng/mL]	AUC(0-inf) [1, 6] [ng·h/mL]	AUC(0-inf) [1, 7] [ng·h/mL]	Cmax [1, 7] [ng/mL]	DC50 (Mnk1; [8]) [nM]	times more effective (than Gal) in degrading Mnk1 (Mnk1) [times]	other results
C[C@]12CC[C@H](O)CC1=CC[C@@H]1[C@@H]2CC[C@]2(C)C(n3cnc4ccccc43)=CC[C@@H]12 [Galeterone]	1.24	169	0.17	1.26	18.4	111	507	57.9	969	32.8	5290 ± 90		half-life ([1]; male, CD-1, mouse, plasma, range over IV, IP and PO routes, mice): 0.17 to 1.26 h
C[C@]12CC[C@H](OCc3ccncc3)CC1=CCC1C2CC[C@]2(C)C(n3cnc4ccccc43)=CCC12 (stereo partly shown) [VNPP414]	6.25	157	7.48	4.3	19.4	8600	2170	547	1030	175	560 ± 70	9.4	
C[C@]12CC[C@H](n3ccnc3)CC1=CCC1C2CC[C@]2(C)C(n3cnc4ccccc43)=CCC12 (stereo partly drawn) [VNPP433-3β]												66.0	F (%) absolute bioavailability [1, 9]: 49.45%; T1/2 [1, 9]: 31.19 h; half-life [1, 10]: 22.4 h; bioavailability [1, 10]: 123%; half-life ([1]; male, CD-1, mouse, in vivo, iv, 1 mg/kg, IV 1 mg/kg, male CD-1 mice): 14.3 h; half-life [1, 11]: 31.2 h; bioavailability [1, 11]: ~50%; AUC ([1]; male, CD-1, mouse, in vivo, 10 mg/kg oral dosing, mice): 71.9 µM·h; Cmax ([1]; male, CD-1, mouse, in vivo, PO 10 mg/kg, plasma, converted from ng/mL): ~2000 nM; AUC(0-inf) [1, 12]: 57300 ng·h/mL; Cmax [1, 12]: 2290 ng/mL; AUC(0-inf) ([1]; mouse, in vivo, IV 1 mg/kg, male CD-1 mice, plasma): 3470 ng·h/mL; AUC(0-inf) [1, 13]: 31800 ng·h/mL; Cmax [1, 13]: 706 ng/mL; DC50 (Mnk1; read-out: Mnk1 EC50, 0–7.5 µM, 72 h, western blot): 80 nM
